The record followed here is patent US11578074B2, “Nitrogenous heterocyclic compound, preparation method, intermediate, composition, and application” (SHANGHAI PHARMACEUTICALS HOLDING CO., LTD., priority 2017, dated 2023).

SMILES strings stand for the structures. Read-outs that look alike come from different tables or passages of the source. Some results are limits rather than exact numbers.

A short description of data set [1]: In vivo pharmacokinetics study in cynomolgus monkeys. The conditions noted are these: cynomolgus monkeys, oral 15 mg/kg. On the procedure:
6 male cynomolgus monkeys (purchased from Guangxi Guidong Primate Development Experiment Co., Ltd., certificate No. SCXK (Guangxi) 2013-0057) were divided into 2 groups with 3 in each group, and all of the animals were fasted for about 12 hours before administration. One group was orally administrated with 15 mg/kg of the final product of Embodiment 22 (deionized water was added, followed by sonication for 30 minutes and stirring for 3 minutes, and a clear pale yellow dosing solution with a concentration of 3 mg/mL was prepared); one group was administrated with 15 mg/kg of Pyrotinib (deionized water was added, followed by sonication for 30 minutes and stirring for 4 minutes, and a clear yellow dosing solution with a concentration of 3 mg/mL was prepared). Blood samples were collected before administration and at 15, 30, 60, 90, 120, 150, 180, 240, 360, 480, 720 and 1440 minutes respectively after administration.
(§1) 1.0 mL of blood was collected from each animal through jugular vein puncture at each time point and heparin sodium was used for anticoagulation. The blood samples were collected and placed in labeled centrifuge tubes, and plasma was centrifuged (centrifugation conditions: 3500 rpm, 10 minutes, 2-8° C.). To 50 μL of plasma sample was added 300 μL of acetonitrile containing internal standard (Propranolol, 25 ng/mL) to precipitate the protain. After vortexing for 10 minutes and centrifuging at 6000 g for 20 minutes, 100 μL of supernatant was taken and injected into a 96-well plate. The drug concentration in plasma was determined by UPLC/MS-MS.

Data set [2] has as its target T1, CYP3A4 (Homo sapiens, UniProt P08684).
T1 construct: A system of 100 μL human liver microsomes; from tissue; host or cells: human liver microsomes
In words: Direct inhibition (DI) of CYP3A4 in human liver microsomes. Type of data set: in vitro ADME. The following applies: human liver microsomes 0.2 mg/mL, 10 μM compound. Put shortly:
(§2)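 Pooled human liver microsomes (0.2 mg/mL) with 1 mM NADPH and 10 μM test compound were incubated for 20 min with a mixed probe-substrate cocktail (midazolam 10 μM, testosterone 100 μM, dextromethorphan 10 μM, diclofenac 20 μM, phenacetin 100 μM, mephenytoin 100 μM). Relative enzyme activity came from metabolite formation versus DMSO control.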

In data set [3] the target is T2, CYP2C19 (Homo sapiens, UniProt P33261).
T2 construct: A system of 100 μL human liver microsomes; from tissue; host or cells: human liver microsomes
T2 sequence (P33261 whole entry): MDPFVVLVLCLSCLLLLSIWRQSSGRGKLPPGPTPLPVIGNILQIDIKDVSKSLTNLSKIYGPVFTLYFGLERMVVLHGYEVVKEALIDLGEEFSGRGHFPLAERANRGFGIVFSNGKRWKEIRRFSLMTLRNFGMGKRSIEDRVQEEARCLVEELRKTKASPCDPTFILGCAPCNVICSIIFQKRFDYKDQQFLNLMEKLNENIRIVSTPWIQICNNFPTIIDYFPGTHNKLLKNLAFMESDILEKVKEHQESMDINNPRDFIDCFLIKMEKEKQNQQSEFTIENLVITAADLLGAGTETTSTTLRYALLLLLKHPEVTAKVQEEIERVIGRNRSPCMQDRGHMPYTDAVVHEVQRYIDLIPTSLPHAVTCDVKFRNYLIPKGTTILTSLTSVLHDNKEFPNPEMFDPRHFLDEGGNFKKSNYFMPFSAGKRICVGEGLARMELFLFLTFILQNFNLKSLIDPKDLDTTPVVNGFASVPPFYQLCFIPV
In words: Direct inhibition (DI) of CYP2C19 in human liver microsomes. In kind it is in vitro ADME. The following applies: probe Mephenytoin, human liver microsomes 0.2 mg/mL, 10 μM compound, read-out: Direct inhibition (DI) 2C19 (Mephenytoin). Put shortly: as §2
On the technique in general: Liver microsomes are vesicles of endoplasmic reticulum, rich in cytochrome P450 enzymes.

For data set [4], the target named is T3, CYP2D6 (Homo sapiens, UniProt P10635).
T3 construct: A system of 100 μL human liver microsomes; from tissue; host or cells: human liver microsomes
T3 sequence (P10635 whole entry): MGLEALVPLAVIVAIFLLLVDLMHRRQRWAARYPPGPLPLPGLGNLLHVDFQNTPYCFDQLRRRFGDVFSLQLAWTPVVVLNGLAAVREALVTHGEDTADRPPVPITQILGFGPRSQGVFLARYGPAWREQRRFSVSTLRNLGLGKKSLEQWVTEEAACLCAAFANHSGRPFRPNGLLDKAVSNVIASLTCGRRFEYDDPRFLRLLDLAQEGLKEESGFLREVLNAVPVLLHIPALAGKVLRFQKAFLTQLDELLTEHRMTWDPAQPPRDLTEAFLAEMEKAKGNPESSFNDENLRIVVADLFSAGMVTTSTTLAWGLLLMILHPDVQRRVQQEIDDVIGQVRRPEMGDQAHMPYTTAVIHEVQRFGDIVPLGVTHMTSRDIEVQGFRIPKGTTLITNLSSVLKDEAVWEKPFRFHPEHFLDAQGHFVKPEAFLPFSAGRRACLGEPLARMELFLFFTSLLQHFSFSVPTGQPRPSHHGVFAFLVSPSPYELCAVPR
In words: Direct inhibition (DI) of CYP2D6 in human liver microsomes. In kind it is in vitro ADME. The following applies: probe Dextromethorphan, human liver microsomes 0.2 mg/mL, 10 μM compound, read-out: Direct inhibition (DI) 2D6 (Dextromethorphan). A digest of the protocol:
as §2

Data set [5] addresses T4, CYP2C9 (Homo sapiens, UniProt P11712).
T4 construct: A system of 100 μL human liver microsomes; from tissue; host or cells: human liver microsomes
As to the kind of experiment: Direct inhibition (DI) of CYP2C9 in human liver microsomes. Type of data set: in vitro ADME. The following applies: probe Diclofenac, human liver microsomes 0.2 mg/mL, 10 μM compound, read-out: Direct inhibition (DI) 2C9 (Diclofenac). A digest of the protocol: as §2

Data set [6] concerns the target T5, CYP1A2 (Homo sapiens, UniProt P05177).
T5 construct: A system of 100 μL human liver microsomes; from tissue; host or cells: human liver microsomes
T5 sequence (P05177 1-516): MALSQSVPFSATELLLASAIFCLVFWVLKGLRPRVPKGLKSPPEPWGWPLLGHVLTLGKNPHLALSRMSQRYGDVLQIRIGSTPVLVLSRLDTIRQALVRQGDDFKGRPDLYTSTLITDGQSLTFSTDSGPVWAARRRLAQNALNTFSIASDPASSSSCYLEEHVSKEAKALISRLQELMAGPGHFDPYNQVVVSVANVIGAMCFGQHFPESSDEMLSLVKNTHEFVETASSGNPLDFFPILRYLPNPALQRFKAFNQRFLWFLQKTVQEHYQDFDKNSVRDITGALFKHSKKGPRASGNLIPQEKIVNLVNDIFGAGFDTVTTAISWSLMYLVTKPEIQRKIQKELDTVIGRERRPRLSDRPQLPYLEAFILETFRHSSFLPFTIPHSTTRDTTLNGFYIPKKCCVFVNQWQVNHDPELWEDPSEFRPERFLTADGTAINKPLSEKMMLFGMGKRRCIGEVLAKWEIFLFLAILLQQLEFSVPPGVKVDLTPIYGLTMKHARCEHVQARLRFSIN
In words: Direct inhibition (DI) of CYP1A2 in human liver microsomes. In kind it is in vitro ADME. The following applies: probe Phenacetin, human liver microsomes 0.2 mg/mL, 10 μM compound, read-out: Direct inhibition (DI) 1A2 (Phenacetin). Put shortly:
as §2

Data set [7] is described as follows: In vivo pharmacokinetics study in beagle dogs. The following applies: beagle dogs, oral 15 mg/kg. On the procedure:
6 male beagle dogs (purchased from Beijing Marshall Biotechnology Co., Ltd., certificate No. SCXK (Beijing) 2016-0001) were divided into 2 groups with 3 dogs in each group, and all of the animals were fasted for about 12 hours before administration. One group was orally administrated with 15 mg/kg of the final product of Embodiment 22 (deionized water was added, followed by sonication for 29 minutes and stirring for 4 minutes, and a clear pale yellow dosing solution with a concentration of 3 mg/mL was prepared); the other group was orally administrated with 15 mg/kg of Pyrotinib (deionized water was added, followed by sonication for 28 minutes and stirring for 5 minutes, and a clear yellow dosing solution with a concentration of 3 mg/mL was prepared). Blood samples were collected before administration and at 15, 30, 60, 90, 120, 150, 180, 240, 360, 480, 720 and 1440 minutes respectively after administration.
as §1

In data set [8] the test system is HER2 overexpressing human gastric cancer NCI-N87 nude mice xenograft. In words: HER2 overexpressing human gastric cancer NCI-N87 nude mice xenograft model. Type of data set: in vivo. The following applies: 10 mg/kg, continuous oral administration for 21 days. From the text:
We have established nude mice xenograft model for HER2 overexpression.
(In general: Xenograft models place foreign cells or tissue in a host animal.)

Data set [9] has as its system BT-474 (human breast cancer cell). In words: In vitro proliferation inhibition assay of cell lines (CellTiter-Glo), BT-474. In kind it is cell-based. The following applies: BT-474 cells, 72 hours. Put shortly: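 Cells were exposed to nine compound concentrations in duplicate for 72 h at 37 °C and 5% CO2. Viability was read with CellTiter-Glo reagent after equilibration at room temperature.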
A general note: In ATP-based viability assays light output follows the ATP content of the culture.

Data set [10] has as its target EGFR kinase (Homo sapiens, UniProt P00533). As to the kind of experiment: EGFR/ErbB2 enzymatic experiment (HTRF kinEASE-TK), EGFR. In kind it is biochemical. The following applies: EGFR kinase 0.06 units/μL, ATP 1.65 μM; read-out: Kinase IC50 (nM) in vitro EGFR.
Data set [11] concerns the target T6, ErbB2 kinase (Homo sapiens, UniProt P04626).
T6 construct: The final concentration of ErbB2 kinase was 0.06 ng/μL
In words: EGFR/ErbB2 enzymatic experiment (HTRF kinEASE-TK), ErbB2. Type of data set: biochemical. The conditions noted are these: ErbB2 kinase 0.06 ng/μL, ATP 4 μM; read-out: Kinase IC50 (nM) in vitro ErbB2.

In data set [12] the test system is N87 (human gastric cancer cell NCI-N87). As to the kind of experiment: In vitro proliferation inhibition assay of cell lines (CellTiter-Glo), N87. The conditions noted are these: N87 cells, 72 hours. Type of data set: cell-based. A digest of the protocol: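 Cells seeded overnight (BT-474 8.8×10^4 cells/mL, N87 6.6×10^4 cells/mL), then exposed to 9 compound concentrations in duplicate for 72 hours at 37° C, 5% CO2. Viability read by CellTiter-Glo luminescence.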

The mark [13] stands for this setting: probe Midazolam, read-out: Direct inhibition (DI) 3A4 (Midazolam).
Where [14] appears, read: probe Testosterone, read-out: Direct inhibition (DI) 3A4 (testosterone).

T6 sequence (P04626 23-1255): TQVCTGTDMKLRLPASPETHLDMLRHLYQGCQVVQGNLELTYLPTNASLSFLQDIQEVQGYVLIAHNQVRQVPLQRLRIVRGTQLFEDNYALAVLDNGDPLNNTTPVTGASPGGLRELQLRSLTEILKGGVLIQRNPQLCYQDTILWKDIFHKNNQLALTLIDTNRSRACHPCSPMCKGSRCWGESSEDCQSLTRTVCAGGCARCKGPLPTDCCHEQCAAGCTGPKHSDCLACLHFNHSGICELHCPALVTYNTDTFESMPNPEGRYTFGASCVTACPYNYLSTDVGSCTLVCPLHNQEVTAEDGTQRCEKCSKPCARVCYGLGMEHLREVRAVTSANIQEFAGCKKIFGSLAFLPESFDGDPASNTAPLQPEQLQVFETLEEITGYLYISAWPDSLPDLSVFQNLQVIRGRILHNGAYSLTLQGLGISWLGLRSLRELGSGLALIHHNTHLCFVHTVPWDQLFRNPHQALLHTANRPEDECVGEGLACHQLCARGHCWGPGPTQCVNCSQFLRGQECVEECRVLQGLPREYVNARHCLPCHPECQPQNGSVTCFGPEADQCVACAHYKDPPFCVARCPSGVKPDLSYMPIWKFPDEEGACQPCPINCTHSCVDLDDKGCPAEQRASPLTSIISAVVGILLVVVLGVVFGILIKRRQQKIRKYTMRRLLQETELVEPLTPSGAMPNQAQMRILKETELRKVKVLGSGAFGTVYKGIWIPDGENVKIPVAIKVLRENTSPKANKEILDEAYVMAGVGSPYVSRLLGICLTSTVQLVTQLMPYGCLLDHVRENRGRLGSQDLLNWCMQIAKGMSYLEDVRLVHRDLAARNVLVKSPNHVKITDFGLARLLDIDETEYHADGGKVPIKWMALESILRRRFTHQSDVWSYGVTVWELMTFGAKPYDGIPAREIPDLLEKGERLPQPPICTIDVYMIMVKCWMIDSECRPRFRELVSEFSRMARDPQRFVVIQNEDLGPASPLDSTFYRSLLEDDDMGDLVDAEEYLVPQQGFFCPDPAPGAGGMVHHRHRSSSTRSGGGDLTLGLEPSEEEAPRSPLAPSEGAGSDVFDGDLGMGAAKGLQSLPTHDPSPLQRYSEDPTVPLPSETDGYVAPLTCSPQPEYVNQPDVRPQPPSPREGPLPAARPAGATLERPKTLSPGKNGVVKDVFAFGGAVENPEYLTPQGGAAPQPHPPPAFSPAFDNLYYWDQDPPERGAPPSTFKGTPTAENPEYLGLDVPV
T4 sequence (P11712 whole entry): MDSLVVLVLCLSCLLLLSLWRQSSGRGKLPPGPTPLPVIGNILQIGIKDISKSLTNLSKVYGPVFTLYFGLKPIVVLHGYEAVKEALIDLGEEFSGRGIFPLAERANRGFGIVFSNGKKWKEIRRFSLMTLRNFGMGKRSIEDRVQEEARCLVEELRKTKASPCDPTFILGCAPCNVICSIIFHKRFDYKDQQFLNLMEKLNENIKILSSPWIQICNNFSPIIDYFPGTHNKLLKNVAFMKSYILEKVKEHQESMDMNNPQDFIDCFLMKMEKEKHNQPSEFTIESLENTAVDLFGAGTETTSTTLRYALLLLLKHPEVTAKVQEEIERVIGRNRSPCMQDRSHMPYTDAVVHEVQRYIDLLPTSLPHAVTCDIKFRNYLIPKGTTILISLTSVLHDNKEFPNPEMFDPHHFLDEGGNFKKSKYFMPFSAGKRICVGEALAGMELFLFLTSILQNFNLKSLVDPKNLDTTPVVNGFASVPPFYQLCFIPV
T1 sequence (P08684 whole entry): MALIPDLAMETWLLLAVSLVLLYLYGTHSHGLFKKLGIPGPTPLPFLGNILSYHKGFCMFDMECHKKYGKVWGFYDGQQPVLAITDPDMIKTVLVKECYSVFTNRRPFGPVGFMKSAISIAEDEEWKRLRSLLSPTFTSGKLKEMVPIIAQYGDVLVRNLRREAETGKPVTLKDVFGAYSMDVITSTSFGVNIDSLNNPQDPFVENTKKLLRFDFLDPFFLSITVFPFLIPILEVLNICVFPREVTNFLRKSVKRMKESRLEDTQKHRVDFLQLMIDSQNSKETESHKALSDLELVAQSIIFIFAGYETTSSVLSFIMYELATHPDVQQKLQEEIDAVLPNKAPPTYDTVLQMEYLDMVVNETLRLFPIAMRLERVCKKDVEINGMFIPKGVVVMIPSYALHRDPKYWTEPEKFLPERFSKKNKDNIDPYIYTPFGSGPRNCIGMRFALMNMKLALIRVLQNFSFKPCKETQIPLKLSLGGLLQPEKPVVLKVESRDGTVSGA
Chain of EGFR kinase (P00533 25-1210): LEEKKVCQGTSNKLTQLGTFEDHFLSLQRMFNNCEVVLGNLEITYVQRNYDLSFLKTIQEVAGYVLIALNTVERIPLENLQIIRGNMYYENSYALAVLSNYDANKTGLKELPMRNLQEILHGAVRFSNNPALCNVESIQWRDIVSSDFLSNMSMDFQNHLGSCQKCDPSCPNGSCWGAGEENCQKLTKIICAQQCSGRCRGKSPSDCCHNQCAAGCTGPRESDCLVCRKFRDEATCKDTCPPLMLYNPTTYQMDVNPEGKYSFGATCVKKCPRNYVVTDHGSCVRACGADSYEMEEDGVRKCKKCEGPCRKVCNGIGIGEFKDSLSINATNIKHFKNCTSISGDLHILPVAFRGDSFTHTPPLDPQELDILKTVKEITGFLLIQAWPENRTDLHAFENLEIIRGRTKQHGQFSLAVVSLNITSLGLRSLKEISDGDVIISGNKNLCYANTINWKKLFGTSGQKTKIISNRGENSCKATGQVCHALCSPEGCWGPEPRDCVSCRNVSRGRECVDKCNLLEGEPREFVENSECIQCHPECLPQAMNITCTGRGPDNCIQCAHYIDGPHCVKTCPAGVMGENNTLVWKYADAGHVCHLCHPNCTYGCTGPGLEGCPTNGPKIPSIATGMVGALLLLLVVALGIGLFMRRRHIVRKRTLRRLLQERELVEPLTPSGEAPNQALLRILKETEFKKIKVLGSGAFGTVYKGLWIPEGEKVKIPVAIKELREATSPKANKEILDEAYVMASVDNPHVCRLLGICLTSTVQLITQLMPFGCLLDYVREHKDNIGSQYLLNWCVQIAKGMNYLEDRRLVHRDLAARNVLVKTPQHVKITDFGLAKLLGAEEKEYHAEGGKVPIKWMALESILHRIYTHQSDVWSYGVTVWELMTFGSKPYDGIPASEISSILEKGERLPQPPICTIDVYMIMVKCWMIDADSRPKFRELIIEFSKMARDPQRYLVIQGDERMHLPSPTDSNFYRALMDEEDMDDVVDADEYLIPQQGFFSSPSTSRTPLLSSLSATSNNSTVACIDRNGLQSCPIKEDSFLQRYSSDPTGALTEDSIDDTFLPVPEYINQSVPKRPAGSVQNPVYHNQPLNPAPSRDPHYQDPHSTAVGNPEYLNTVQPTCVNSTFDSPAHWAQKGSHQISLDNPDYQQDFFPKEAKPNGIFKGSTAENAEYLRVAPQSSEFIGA

By AUC is commonly meant concentration integrated over time. By inhibition is commonly meant how much of the control response was suppressed. Take `CCOc1cc2ncc(C#N)c(Nc3ccc(OCc4ccccn4)c(Cl)c3)c2cc1NC(=O)/C=C/[C@H]1CCCN1C` [Pyrotinib, reference compound]: in data set [1], the “oral absorption peak concentration” value was 56.42 ng/mL. For the same molecule, the AUC is 325 ng·h/mL in data set [1] (male, cynomolgus monkey, plasma, read-out: AUC) and 1620 ng·h/mL in [7] (male, dog, plasma, read-out: AUC). Besides, the inhibition at 20 min, 10 µM in [2] (setting [13]) amounted to 15%; in [2] (setting [14]), 22%; in [3], 43%; in data set [4] it was 55%; in data set [5], 26%; in data set [6], 22%. Besides, the “peak oral absorption concentration” value in data set [7] was found to be 146.2 ng/mL. The “tumor volume inhibition rate (GI %)” value in data set [8] stood at 127.0%.

On to `CCOc1cc2ncc(C#N)c(Nc3ccc(OCc4ccccn4)c(Cl)c3)c2cc1NC(=O)/C=C/CN(C)C` [Neratinib, reference compound], for which the “tumor volume inhibition rate (GI %)” value in data set [8] stood at 112.5%.

The IC50 is the midpoint of a concentration-inhibition curve. As for `CCOc1cc2ncnc(Nc3ccc(Oc4ccn5ncnc5c4)c(C)c3)c2cc1NC(=O)/C=C/[C@H]1CCCN1` [Final product of Embodiment 38, (R,E)-N-(4-((4-([1,2,4]triazolo[1,5-a]pyridin-7-yloxy)-3-methylphenyl)amino)-7-ethoxyquinazolin-6-yl)-3-(pyrrolidin-2-yl)acrylamide], the inhibition at 20 min, 10 µM is 5% in data set [2] (setting [13]); 16% in [2] (setting [14]); 45% in [3]; 24% in [4]; 10% in data set [5]; less than 0% in data set [6]. Further, the IC50 turned out to be 2.8 nM in [9], 0.6 nM in data set [10], 0.5 nM in [11] and 2.4 nM in data set [12].

As for `Cc1cc(Nc2ncnc3ccc(NC(=O)/C=C/[C@H]4CCCN4C)cc23)ccc1Oc1ccn2ncnc2n1` [Final product of Embodiment 12, (R,E)-N-(4-((4-([1,2,4]triazolo[1,5-a]pyrimidin-5-yloxy)-3-methylphenyl)amino)quinazolin-6-yl)-3-(1-methylpyrrolidin-2-yl)-acrylamide], the inhibition at 20 min, 10 µM is less than 0% in [2] (setting [13]); 4% in [2] (setting [14]); 13% in data set [3]; 77% in data set [4]; 5% in data set [5]; 2% in [6]. The IC50 came out at 4.01 nM in data set [9], 0.42 nM in data set [10], 0.99 nM in data set [11] and 4.19 nM in data set [12].

Regarding `C=CC(=O)N[C@H]1CCCN(c2ccc3ncnc(Nc4ccc(Oc5cc6nncn6cn5)c(C)c4)c3c2)C1` [Final product of Embodiment 5, (S)—N-(1-(4-((4-([1,2,4]triazolo[4,3-c]pyrimidin-7-yloxy)-3-methylphenyl)amino)quinazolin-6-yl)piperidin-3-yl)acrylamide], the inhibition at 20 min, 10 µM in [2] (setting [13]) was 71%; in data set [2] (setting [14]) it was 74%; in data set [3], 18%; in data set [4], 14%; in [5] it was 49%; in data set [6] it was 9%. In addition, the 50% inhibitory concentration (IC50) worked out at 14.4 nM in data set [9], 62.1 nM in data set [10], 2.04 nM in [11] and 20.1 nM in data set [12].
